Laboratory results: US20040097408A1, “Compounds regulating cell proliferation and differentiation” (priority 2001, published 2004)

What was measured:
[1] = system: F16-resistant normal mammary epithelial and human cancer cell lines; assay: F16 accumulation in the presence of MDR-1 and MRP1 inhibitors; type: cell-based; details: 3 μM F16 with 50 μM verapamil/1 mM probenecid
From the text: To evaluate the effect of multi-drug resistance pumps on the F16-insensitive cells, inhibitors of MDR-1 and MRP1 were utilized (Lizardet al. (1994) Cell Biol Toxicol (10) 399-406).

[2] = system: β-catenin-initiated mouse breast tumor cell lines
[3] = system: isolated mouse liver mitochondria; assay: swelling of isolated mitochondria (permeability transition pore opening); type: biochemical; details: 0.5 mg/ml mitochondria
Experimental: Mitochondria were isolated from liver of Balb/c7 mice by standard differential centrifugation, and resuspended in isolation buffer (0.2 M sucrose, 10 mM Tris-MOPS pH 7.4, 0.1 mM EGTA-Tris, 0.1% delipidated BSA) (Costantini et al. (1995) Toxicology (99) 77-88). Protein concentration was determined by Bradford assay. For swelling determination, changes in side scatter at 545±2.5 nm of a 0.5 mg/ml suspension of mitochondria in experimental buffer (125 mM KCl, 10 mM Tris-MOPS pH 7.4, 1 mM Pi, 5 mM glutamate, 2.5 mM malate, 10 μM EGTA-Tris, pH 7.4) were monitored by using LS-50B spectrofluorimeter. […] All reactions were performed at 25° C. and the instrument was equipped with magnetic stirring.

[4] = total body weight of mice during treatment; type: in vivo, mouse; details: relative to weight at the beginning of the experiment; 20 mg/kg twice a day
From the text: The total weight of the mice was also monitored every other day during the course of the treatment with F16.

[5] = system: isolated mouse liver mitochondria; assay: mitochondrial oxygen consumption (Clarke-type oxygen electrode); type: biochemical
Experimental: Mitochondria were isolated from liver of Balb/c7 mice by standard differential centrifugation, and resuspended in isolation buffer (0.2 M sucrose, 10 mM Tris-MOPS pH 7.4, 0.1 mM EGTA-Tris, 0.1% delipidated BSA) (Costantini et al. (1995) Toxicology (99) 77-88). Protein concentration was determined by Bradford assay. For swelling determination, changes in side scatter at 545±2.5 nm of a 0.5 mg/ml suspension of mitochondria in experimental buffer (125 mM KCl, 10 mM Tris-MOPS pH 7.4, 1 mM Pi, 5 mM glutamate, 2.5 mM malate, 10 μM EGTA-Tris, pH 7.4) were monitored by using LS-50B spectrofluorimeter. To monitor changes in mitochondrial membrane potential, the intrinsic potentiometric properties of F16 were used. Mitochondria (0.5 mg/ml) were incubated in experimental buffer with the indicated concentrations of F16 and changes in F16 fluorescence intensity were measured, using a LS-50B spectrofluorimeter at 25° C., with excitation and emission wavelengths set at 415±2.5 nm and 520±5 nm, respectively. […]
The mechanism of PTP induction by F16 was further investigated as follows. […] First, the effects of F16 were measured on basal (state 4) and uncoupled mitochondrial respiration as follows. Oxygen consumption was determined using a Clarke-type oxygen electrode equipped with thermostatic control and magnetic stirring. […]

NF324-1B = assay: cell count proliferation assay; type: cell-based, mouse; design: key: +: A positive scoring in these Tables represent cells in which a 2-5 and a 10-40 fold reduction in the total number of cells relative to the control untreated cells was observed after 3 and 7 days of culture with F16, respectively; details: Neu, breast, F16 3 μM, cells counted after 3 and 7 days
From the text: (§1) The following panel of mouse tumor cell lines derived from Neu, Ras and Myc transgenic mice and panel of human cancer cell lines were used: a) Neu-initiated mouse tumor cell lines NF980, NF324-2A, NF324-1B, SMF, NAF, Neu4145, n-Neu, Ras-initiated mouse tumor cell lines SH1,1, AC236, AC711, AC816, ACp53^−#1, ACp53^−4782, AC222, AC99, AC260, ACp53^−#19, ACp53^−#16, AC/Balb6.6, AC/Balb14, AC/Balb12 and Myc-initiated mouse tumor cell lines 16MB9a, 13MA1a; and b) human breast tumor cell lines MDA-MB231, MDA-MB435, MDA-MB436, MDA-MB453, MDA-MB-468, SKBR-3, MCF-7, T47D, ZR75; human prostate cancer cell lines LNCaP, PC-3, DU145 and the human ovarian cancer cell line SKOV-3.
(§2) For each cell line, 10^5 cells were seeded in 4×6 well plates. Next day, F16 was added at 3 μM to the medium of 2 of the plates, while the other two were left untreated (control). Cells were counted 3 days and 7 days after initiation of treatment.
(§3) A positive scoring in these Tables represent cells in which a 2-5 and a 10-40 fold reduction in the total number of cells relative to the control untreated cells was observed after 3 and 7 days of culture with F16, respectively.

SMF = assay: cell count proliferation assay; type: cell-based, mouse; design: key: +: A positive scoring in these Tables represent cells in which a 2-5 and a 10-40 fold reduction in the total number of cells relative to the control untreated cells was observed after 3 and 7 days of culture with F16, respectively; details: Neu, breast, F16 3 μM, cells counted after 3 and 7 days
From the text: as §1, §2, §3

AC816 = assay: cell count proliferation assay; type: cell-based, mouse; design: key: +: A positive scoring in these Tables represent cells in which a 2-5 and a 10-40 fold reduction in the total number of cells relative to the control untreated cells was observed after 3 and 7 days of culture with F16, respectively; details: AC816, Ras, breast; F16 3 μM, cells counted after 3 and 7 days
From the text: as §1, §2, §3

AC236 = assay: cell count proliferation assay; type: cell-based, mouse; design: key: +: A positive scoring in these Tables represent cells in which a 2-5 and a 10-40 fold reduction in the total number of cells relative to the control untreated cells was observed after 3 and 7 days of culture with F16, respectively; details: AC236, Ras, breast; F16 3 μM, cells counted after 3 and 7 days
From the text: as §1, §2, §3

NF324-2A = assay: cell count proliferation assay; type: cell-based, mouse; design: key: +: A positive scoring in these Tables represent cells in which a 2-5 and a 10-40 fold reduction in the total number of cells relative to the control untreated cells was observed after 3 and 7 days of culture with F16, respectively; details: Neu, breast, F16 3 μM, cells counted after 3 and 7 days
From the text: as §1, §2, §3

Neu4145 = assay: cell count proliferation assay; type: cell-based, mouse; design: key: +: A positive scoring in these Tables represent cells in which a 2-5 and a 10-40 fold reduction in the total number of cells relative to the control untreated cells was observed after 3 and 7 days of culture with F16, respectively; details: Neu4145, Neu, breast; F16 3 μM, cells counted after 3 and 7 days
From the text: as §1, §2, §3

C[n+]1ccc(/C=C/c2c[nH]c3ccccc23)cc1.[I-] [F16]
F16 mitochondrial accumulation with MDR-1/MRP1 inhibitors [1]: did not result in F16 mitochondrial accumulation | selectivity for β-catenin-initiated mouse breast tumor cell lines [2]: to some extent selectivity | swelling of purified mitochondria [3]: swelling of purified mitochondria in a dose-dependent fashion | average total body weight loss [4]: 3.3% | uncoupled mitochondrial respiration [5]: inhibits uncoupled respiration | state 4 (basal) mitochondrial oxygen consumption ([5]; substrates for complexes I and II+III): increase in state 4 of mitochondrial oxygen consumption | F16 response (NF324-1B): + | F16 response (SMF): + | F16 response (AC816): + | F16 response (AC236): + | F16 response (NF324-2A): + | F16 response (Neu4145): +
